Where a SMILES comes first, the peptide text is derived from it. Bridges are numbered along the chain shown (N, C = ends).
Columns and labels:
[1] = system: Cystic fibrosis transmembrane conductance regulator (Homo sapiens), P13569 [F508del]; test: Stabilization of F508del-CFTR in human CFBE41o- cells assessed as OUTB1 occupancy by Proteomic analysis relative to control; type: cell-based
[2] = Rescue of F508del-CFTR residual channel activity in hamster BHK cells assessed as fold increase in forskolin/genistein-induced iodide efflux measured every minute for 10 mins
[3] = Inhibition of Hsp40-stimulated yeast Hsp70 ATPase activity assessed as inhibition constant by single-turnover assay; set-up: species or system Saccharomyces cerevisiae
[4] = organism: Homo sapiens; test: Inhibition of Hsp70 ATPase activity (unknown origin) at 200 uM incubated for 3 hrs in presence of ATP by malachite green assay relative to control
[5] = target: T1, Golgi-associated PDZ and coiled-coil motif-containing protein (Homo sapiens, UniProt Q9HD26); test: Inhibition of CAL PDZ domain (unknown origin) assessed as inhibition constant by fluorescence polarization competition assay
[6] = system: Cystic fibrosis transmembrane conductance regulator (Homo sapiens), P13569 [F508del]; test: Modulation of F508del-CFTR mutant transfected in human HEK293 cells assessed as fold increase in level of ER glycosylated form of F508del-CFTR at 30 uM treated for 24 hrs by immunoblot assay; type: cell-based; conditions: filed as modulator
[7] = Ex vivo inhibition of PARP-1 in ileum of cystic fibrosis mouse model assessed as rescue of F508del-CFTR activity at 1 nM treated for 4 hrs in presence of forskolin/genistein relative to control; type: functional; set-up: scale not given: the % may be the effect or the level left
[8] = system: Mus musculus; test: In vivo rescue of F508del-CFTR activity in cystic fibrosis mouse model assessed as measuring salivary secretion at 5 mg/kg/day, ip qd for 2 days relative to control; type: functional; conditions: time 2 day
[9] = target: T2, Protein mono-ADP-ribosyltransferase PARP3 (Homo sapiens, UniProt Q9Y6F1); test: Inhibition of recombinant human PARP3 expressed in baculovirus expression system using anchored-histone proteins as substrate incubated for 1 hr by chemiluminescence assay
T2 sequence (Q9Y6F1 whole entry): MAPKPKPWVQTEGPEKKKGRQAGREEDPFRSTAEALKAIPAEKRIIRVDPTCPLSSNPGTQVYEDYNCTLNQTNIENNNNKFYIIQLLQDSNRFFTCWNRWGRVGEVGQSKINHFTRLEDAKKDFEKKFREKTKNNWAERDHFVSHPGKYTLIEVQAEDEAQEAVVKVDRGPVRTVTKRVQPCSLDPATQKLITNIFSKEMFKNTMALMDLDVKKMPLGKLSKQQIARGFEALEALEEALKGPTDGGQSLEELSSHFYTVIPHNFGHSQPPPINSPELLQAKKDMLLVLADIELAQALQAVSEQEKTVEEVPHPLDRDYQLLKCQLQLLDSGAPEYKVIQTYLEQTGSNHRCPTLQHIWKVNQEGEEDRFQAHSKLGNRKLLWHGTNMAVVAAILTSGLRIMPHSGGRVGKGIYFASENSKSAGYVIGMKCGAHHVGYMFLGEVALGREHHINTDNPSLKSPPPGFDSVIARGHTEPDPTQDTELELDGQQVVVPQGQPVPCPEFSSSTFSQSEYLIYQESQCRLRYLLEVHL

[10] = target: T3, Protein mono-ADP-ribosyltransferase PARP16 (Homo sapiens, UniProt Q8N5Y8); test: Inhibition of PARP16 (unknown origin) using 6xHis-tagged IRE-1 as substrate incubated for 1 hr by chemiluminescence assay
T3 sequence (Q8N5Y8 whole entry): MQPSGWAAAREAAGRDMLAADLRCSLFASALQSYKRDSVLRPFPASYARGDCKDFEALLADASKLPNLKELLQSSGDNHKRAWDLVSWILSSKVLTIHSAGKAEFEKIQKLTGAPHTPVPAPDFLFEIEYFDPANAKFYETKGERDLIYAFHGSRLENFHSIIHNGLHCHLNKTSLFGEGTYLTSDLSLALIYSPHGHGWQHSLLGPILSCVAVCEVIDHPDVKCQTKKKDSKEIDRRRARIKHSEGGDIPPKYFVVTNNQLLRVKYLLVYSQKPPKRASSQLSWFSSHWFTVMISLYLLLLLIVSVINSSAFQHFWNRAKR

[11] = system: Cystic fibrosis transmembrane conductance regulator (Homo sapiens), P13569 [F508del]; test: Modulation of F508del-CFTR mutant in HBE cells assessed as fold increase in CFTR mRNA levels by […]; type: cell-based; conditions: filed as modulator
[12] = target: T1, Golgi-associated PDZ and coiled-coil motif-containing protein; test: Binding affinity to CAL PDZ domain (unknown origin) assessed as dissociation constant in presence of tris(carboxylethyl)phosphine by fluorescence anisotropy analysis

Chain of Cystic fibrosis transmembrane conductance regulator (Homo sapiens), P13569 [F508del] (P13569 as listed by the source): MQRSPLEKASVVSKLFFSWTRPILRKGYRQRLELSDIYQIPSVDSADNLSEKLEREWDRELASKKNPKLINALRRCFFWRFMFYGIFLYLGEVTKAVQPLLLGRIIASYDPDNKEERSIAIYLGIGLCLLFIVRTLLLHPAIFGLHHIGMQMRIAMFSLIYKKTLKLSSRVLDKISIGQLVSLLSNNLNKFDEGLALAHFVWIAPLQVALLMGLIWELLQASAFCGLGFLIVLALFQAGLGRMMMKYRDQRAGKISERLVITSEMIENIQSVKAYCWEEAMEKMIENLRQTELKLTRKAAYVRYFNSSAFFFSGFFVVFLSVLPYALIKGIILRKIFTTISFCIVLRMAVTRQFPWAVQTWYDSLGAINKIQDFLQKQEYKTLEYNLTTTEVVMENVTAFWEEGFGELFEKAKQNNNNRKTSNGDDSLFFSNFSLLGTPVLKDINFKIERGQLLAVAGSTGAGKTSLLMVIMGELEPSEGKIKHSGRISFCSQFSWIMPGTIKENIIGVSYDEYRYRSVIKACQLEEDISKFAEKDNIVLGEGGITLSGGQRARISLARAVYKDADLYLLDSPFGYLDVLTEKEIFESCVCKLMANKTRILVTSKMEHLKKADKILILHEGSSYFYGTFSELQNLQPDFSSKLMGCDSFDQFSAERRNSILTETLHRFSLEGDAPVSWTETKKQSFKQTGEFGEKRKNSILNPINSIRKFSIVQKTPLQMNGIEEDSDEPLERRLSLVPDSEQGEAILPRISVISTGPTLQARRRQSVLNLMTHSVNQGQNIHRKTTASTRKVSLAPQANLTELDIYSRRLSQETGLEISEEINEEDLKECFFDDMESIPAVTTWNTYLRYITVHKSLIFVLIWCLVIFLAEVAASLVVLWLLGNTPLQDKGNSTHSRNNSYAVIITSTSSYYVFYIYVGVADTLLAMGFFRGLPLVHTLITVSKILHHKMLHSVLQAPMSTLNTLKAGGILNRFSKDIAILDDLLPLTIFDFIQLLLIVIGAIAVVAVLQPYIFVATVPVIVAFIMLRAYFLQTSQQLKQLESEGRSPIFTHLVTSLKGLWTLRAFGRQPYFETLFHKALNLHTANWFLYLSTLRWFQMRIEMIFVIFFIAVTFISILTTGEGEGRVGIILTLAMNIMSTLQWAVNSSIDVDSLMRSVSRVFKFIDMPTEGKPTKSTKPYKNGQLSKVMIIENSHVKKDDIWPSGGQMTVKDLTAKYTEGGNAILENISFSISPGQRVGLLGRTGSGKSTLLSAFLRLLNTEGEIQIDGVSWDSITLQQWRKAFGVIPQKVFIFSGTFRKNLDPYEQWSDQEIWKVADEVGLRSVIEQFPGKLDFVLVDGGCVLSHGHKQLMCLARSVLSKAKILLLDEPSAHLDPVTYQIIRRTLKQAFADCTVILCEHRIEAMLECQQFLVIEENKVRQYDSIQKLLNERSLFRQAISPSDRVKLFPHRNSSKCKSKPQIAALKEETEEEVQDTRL

## C=CC(=O)N1CCN(c2ccc(CCC(=O)NCCCCCNC(=O)c3cccc(-c4nc(NC(=O)C5(c6ccc7c(c6)OC(F)(F)O7)CC5)ccc4C)c3)o2)C(=O)C1
[1]
  Activity: 60%

## N#CCc1nnc(-c2ccccn2)[nH]1
[2]
  fold change (FC): 2.5

## CCCCCCCCCCCCC/C=C/[C@@H](O)[C@H](COC1O[C@H](CO)[C@H](O)[C@H](OS(=O)(=O)O)[C@H]1O)NC(=O)CC12CC3CC(CC(C3)C1)C2 (stereo not given in full)
[3]
  Ki: 10 µM

## COc1ccc(-c2nc(-c3cc(C(F)(F)F)cc(C(F)(F)F)c3)n(Cc3ccc(C(N)=O)cc3)c2-c2ccc(OC)cc2)cc1
[4]
  inhibition: 55%

## CC(=O)N[C@@H](Cc1c[nH]c2ccccc12)C(=O)N[C@@H](CCC(N)=O)C(=O)N[C@H](C(=O)N[C@H](C(=O)N[C@@H](CCCNC(=N)N)C(=O)N[C@H](C(=O)O)C(C)C)[C@@H](C)O)C(C)C (Ac-WQVTRV-OH)
[5]
  Ki: 2.3 µM

## CC1=C(C(=O)OCc2ccccc2)C(c2ccc(Cl)cc2Cl)NC(=O)N1CCCC(=O)O (stereo not given)
[6]
  fold change (FC): 2.1

## CCN(CC)c1ccc(N/N=C2\C(=O)C=Cc3ccccc32)cc1
[2]
  fold change (FC): 2.5

## C[C@]1(c2nc3c(C(N)=O)cccc3[nH]2)CCCN1 [VELIPARIB]
[7]
  Activity: 7%
[8]
  Activity: 7.8%

## O=C1NC[C@@H](c2ccccc2)[C@@H](O)c2ccccc21
[9]
  IC50: 3.1 µM
[10]
  IC50: 296 µM

## O=C(NCCCn1nncc1CO)c1cc(-c2ccccc2)on1
[11]
  fold change (FC): 1.5

## CC(=O)N[C@H]1CSSC[C@@H](C(=O)N[C@H](C(=O)N[C@@H](CCCNC(=N)N)C(=O)N[C@H](C(=O)O)C(C)C)[C@@H](C)O)NC(=O)[C@H](CCC(N)=O)NC(=O)[C@H](Cc2c[nH]c3ccccc23)NC(=O)[C@H](Cc2ccccc2)NC(=O)[C@H](CCCNC(=N)N)NC(=O)[C@H](CCCNC(=N)N)NC(=O)[C@H](CCCNC(=N)N)NC(=O)[C@H](CCCNC(=N)N)NC1=O (Ac-CRRRRFWQCTRV-OH; disulfide 1-9)
[12]
  Kd: 0.49 µM

## O=C1NC[C@@H](c2ccccn2)[C@@H](O)c2cc(Cl)c(Cl)cc21
[9]
  IC50: 74.1 µM
[10]
  IC50: 0.362 µM

Source: ChEMBL document CHEMBL5131510, “Proteostasis Regulators in Cystic Fibrosis: Current Development and Future Perspectives” (J Med Chem, 2022)
